Results reported in patent US20230265151A1, “GIP/GLP1 CO-AGONIST COMPOUNDS” (priority 2020, published 2023).
Like-named read-outs stand apart in the source and are kept apart here.

How the values were obtained:
[1] = target: T1, hGIPR (Homo sapiens, UniProt P48546); experiment: Functional cAMP formation (HTRF) in HEK-293 clonal cells expressing hGIPR, 0.1% bovine casein, without or with 1.0% human serum albumin; format: cell-based; details: for EC50: 0.1% bovine casein and 1.0% human serum albumin, geometric mean
T1 construct: expressed in transfected cells
T1 sequence (P48546 22-466): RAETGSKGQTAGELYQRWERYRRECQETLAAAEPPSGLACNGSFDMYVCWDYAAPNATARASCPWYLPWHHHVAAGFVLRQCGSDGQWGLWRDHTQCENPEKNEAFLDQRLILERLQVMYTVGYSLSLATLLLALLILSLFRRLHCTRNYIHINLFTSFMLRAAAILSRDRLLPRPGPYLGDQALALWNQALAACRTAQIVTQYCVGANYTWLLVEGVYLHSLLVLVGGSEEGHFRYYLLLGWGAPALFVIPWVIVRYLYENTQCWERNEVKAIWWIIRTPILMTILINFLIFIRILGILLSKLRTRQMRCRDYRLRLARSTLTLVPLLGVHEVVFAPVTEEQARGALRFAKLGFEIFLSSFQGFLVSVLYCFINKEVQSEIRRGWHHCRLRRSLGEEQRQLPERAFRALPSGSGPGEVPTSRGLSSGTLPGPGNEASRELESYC
Procedure, shortened: (§1)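 Cells were stimulated with peptide for 30 min at 37° C, then lysed in buffer carrying cAMP-d2 and anti-cAMP Eu3+-cryptate for a competitive HTRF read after at least 60 min at room temperature. The 665/620 nm ratio was converted to nM cAMP against a standard curve.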

[2] = target: T2, human GLP-1 receptor (hGLP-1R) (Homo sapiens, UniProt P43220); experiment: [125I]-GLP-1 binding, SPA with membranes of HEK293 cells expressing hGLP-1R
T2 construct: expressed in transfected cells; crude membranes
Procedure: Two methods are used for the preparation of crude cell membranes.
Method 1: Frozen cell pellets are lysed on ice in hypotonic buffer containing 50 mM Tris HCl, pH 7.5, and Roche Complete™ Protease Inhibitors with EDTA. […] The homogenate is centrifuged at 4° C. at 1100 × g for 10 minutes. The supernatant is collected and stored on ice while the pellets are resuspended in homogenization buffer and rehomogenized as described above. The homogenate is centrifuged at 1100 × g for 10 minutes. The second supernatant is combined with the first supernatant and centrifuged at 35000 × g for 1 hour at 4° C. The resulting membrane pellet is resuspended in homogenization buffer containing protease inhibitors at approximately 1 to 3 mg/mL, quick frozen in liquid nitrogen and stored as aliquots in a -80° C. freezer until use.
The homogenate is centrifuged at 4° C. at 1800 × g for 15 minutes. The supernatant is collected and stored on ice while the pellets are resuspended in homogenization buffer (without DNAse I) and rehomogenized as described above. The homogenate is centrifuged at 1800 × g for 15 minutes. The second supernatant is combined with the first supernatant and centrifuged an additional time at 1800 × g for 15 minutes. The overall supernatant is then centrifuged at 25000 × g for 30 minutes at 4° C. The resulting membrane pellet is resuspended in homogenization buffer (without DNAse I) containing protease inhibitors at approximately 1 to 3 mg/mL and stored as aliquots in a -80° C. freezer until use.
The human GLP-1 receptor binding assay is performed using an SPA format with WGA beads. The binding buffer contains 25 mM HEPES, pH 7.4, 2.5 mM CaCl2, 1 mM MgCl2, 0.1% (w/v) bacitracin, 0.003% (w/v) TWEEN®-20, and Roche Complete™ Protease Inhibitors without EDTA.
Raw CPM data for concentration curves of peptides, Gcg, GLP-1, or GIP are converted to percent inhibition by subtracting nonspecific binding (binding in the presence of excess unlabeled Gcg, GLP-1, or GIP, respectively) from the individual CPM values and dividing by the total binding signal, also corrected by subtracting nonspecific binding. Data are analyzed using four-parameter (curve maximum, curve minimum, IC50, Hill slope) nonlinear regression routines (Genedata Screener, version 12.0.4, Genedata AG, Basal, Switzerland). […] Values for Ki are reported as the geometric mean, with error expressed as the standard error of the mean (SEM) and n is equal to the number of independent replicates (determined in assays performed on different days). Geometric Means are calculated as follows: […]
The Ki Ratio (Ki for native control peptide/Ki for test compound) at each receptor and each species is calculated. The Ki Ratio is a rapid indication of the apparent affinity of a peptide compared to the native control peptide.
n=⅟x means that only one value out of the total number of replicates (x) is used to express the mean. SEM is only calculated when n=2 or greater non-qualified results exist. Means are expressed as GeoMetric means with the standard error of the mean (SEM) and the number of replicates (n) indicated in parenthesis.

[3] = target: hGLP-1R (Homo sapiens, UniProt P43220); experiment: Functional cAMP formation (HTRF) in HEK-293 clonal cells expressing hGLP-1R, 0.1% bovine casein, without or with 1.0% human serum albumin; format: cell-based; design: expressed in transfected cells; details: 37° C.; for EC50: 0.1% bovine casein and 1.0% human serum albumin, geometric mean
Procedure, shortened: as §1

[4] = target: T3, hGCGR (Homo sapiens, UniProt P47871); experiment: Functional cAMP formation (HTRF) in HEK-293 clonal cells expressing hGCGR, 0.1% bovine casein, without or with 1.0% human serum albumin; format: cell-based; details: geometric mean
T3 construct: expressed in transfected cells
Procedure, shortened: as §1

[5] = 37° C., read-out: hGIPR EC50, nM (SEM, n)
[6] = human GLP-1R, geometric mean (SEM, n), read-out: Binding Affinity Ki, nM (SEM, n) hGLP-1R
[7] = read-out: hGLP-1R EC50, nM (SEM, n)
[8] = 0.1% bovine casein and 1.0% human serum albumin, 37° C., read-out: hGCGR EC50, nM (SEM, n)
[9] = cAMP, incubated at 37° C., 0.1% bovine casein (no human serum albumin), read-out: hGCGR EC50, nM (SEM, n)

T3 sequence (P47871 26-477): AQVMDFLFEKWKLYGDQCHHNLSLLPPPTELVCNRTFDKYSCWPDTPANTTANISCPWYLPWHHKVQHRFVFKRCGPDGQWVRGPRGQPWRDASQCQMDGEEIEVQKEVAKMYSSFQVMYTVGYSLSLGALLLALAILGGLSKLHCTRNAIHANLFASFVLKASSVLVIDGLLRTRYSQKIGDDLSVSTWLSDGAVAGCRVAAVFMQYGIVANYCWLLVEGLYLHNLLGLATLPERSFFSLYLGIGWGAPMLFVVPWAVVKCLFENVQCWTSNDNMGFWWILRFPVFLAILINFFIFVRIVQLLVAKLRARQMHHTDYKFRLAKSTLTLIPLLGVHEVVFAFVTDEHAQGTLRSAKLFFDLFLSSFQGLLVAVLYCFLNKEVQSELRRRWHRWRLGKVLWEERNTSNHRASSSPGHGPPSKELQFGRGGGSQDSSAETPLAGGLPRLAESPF
T2 sequence (P43220 24-463): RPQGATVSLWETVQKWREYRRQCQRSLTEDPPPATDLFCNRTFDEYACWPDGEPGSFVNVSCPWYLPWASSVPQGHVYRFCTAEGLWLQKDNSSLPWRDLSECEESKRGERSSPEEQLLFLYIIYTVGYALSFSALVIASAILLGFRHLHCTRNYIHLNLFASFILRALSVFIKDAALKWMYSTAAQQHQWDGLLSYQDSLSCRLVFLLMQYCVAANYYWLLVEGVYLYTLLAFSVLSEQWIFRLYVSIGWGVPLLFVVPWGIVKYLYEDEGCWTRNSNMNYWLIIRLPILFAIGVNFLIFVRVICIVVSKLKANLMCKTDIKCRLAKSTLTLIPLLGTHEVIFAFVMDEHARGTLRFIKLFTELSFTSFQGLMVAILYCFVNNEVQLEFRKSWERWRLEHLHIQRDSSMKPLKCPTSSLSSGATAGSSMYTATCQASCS
hGLP-1R, sequence (P43220 24-463): as above

| SMILES | EC50 [1, 5] | Ki [2, 6] | EC50 [3, 7] | Emax ([3]; HEK293, percent of maximal response to GLP-1(7-36)NH2, 0.1% bovine casein, arithmetic mean, read-out: hGLP-1R Emax, % ± SEM) | Emax ([1]; HEK293, 0.1% bovine casein and 1.0% human serum albumin, 37° C., percent of maximal response to GIP(1-42)NH2, read-out: hGIPR Emax, % ± SEM) | Emax ([1]; HEK293, percent of maximal response to GIP(1-42)NH2, 37° C., 0.1% bovine casein, arithmetic mean, read-out: hGIPR Emax, % ± SEM) | EC50 [4, 8] | EC50 [4, 9] | Emax ([1]; HEK293, read-out: hGIPR Emax, % ± SEM, 0.1% bovine casein and 1.0% human serum albumin, 37° C., percent of maximal response to GIP(1-42)NH2) | EC50 ([1]; hGIPR EC50, nM (SEM, n), 37° C.) | Ki [2] | EC50 ([4]; hGCGR EC50, nM (SEM, n), 0.1% bovine casein and 1.0% human serum albumin, 37° C.) | EC50 ([4]; hGCGR EC50, nM (SEM, n), cAMP, incubated at 37° C., 0.1% bovine casein (no human serum albumin)) | EC50 ([3]; hGLP-1R EC50, nM (SEM, n)) |
| --- | --- | --- | --- | --- | --- | --- | --- | --- | --- | --- | --- | --- | --- | --- |
| CCCCCCCCCCCCCCCC(=O)N[C@@H](CCC(=O)NCCOCCOCC(=O)NCCOCCOCC(=O)NCCCC[C@H](NC(=O)CNC(=O)CNC(=O)[C@H](CCC(=O)O)NC(=O)[C@@H](NC(=O)[C@H](CC(C)C)NC(=O)[C@](C)(Cc1ccc(O)cc1)NC(=O)[C@@H](CCC(=O)O)NC(=O)[C@@H](NC(=O)[C@H](Cc1ccccc1)NC(=O)[C@H](CCC(=O)O)NC(=O)C(C)(C)NC(=O)[C@H](CCC(N)=O)NC(=O)[C@H](C)NC(=O)[C@H](CCCCNC(=O)COCCOCCNC(=O)COCCOCCNC(=O)CC[C@H](NC(=O)CCCCCCCCCCCCCCC)C(=O)O)NC(=O)[C@H](CCCN)NC(=O)[C@H](CC(=O)O)NC(=O)[C@H](CC(C)C)NC(=O)[C@](C)(CC(C)C)NC(=O)[C@@H](NC(=O)[C@H](CO)NC(=O)[C@H](Cc1ccncc1)NC(=O)[C@H](CC(=O)O)NC(=O)[C@H](CO)NC(=O)[C@@H](NC(=O)[C@](C)(Cc1ccccc1F)NC(=O)[C@@H](NC(=O)CNC(=O)[C@H](CCC(=O)O)NC(=O)C(C)(C)NC(=O)[C@@H](N)Cc1ccc(O)cc1)[C@@H](C)O)[C@@H](C)O)[C@@H](C)CC)[C@@H](C)CC)[C@@H](C)CC)C(=O)N[C@@H](CO)C(=O)N[C@@H](CO)C(=O)NCC(=O)N[C@@H](C)C(=O)N1CCC[C@H]1C(=O)N1CCC[C@H]1C(=O)N1CCC[C@H]1C(=O)N[C@@H](CO)C(N)=O)C(=O)O [Example 7] | 0.566 nM | 0.362 nM | 2.74 nM | 95.4 ± 5.03% | – | – | – | – | – | – | – | – | – | – |
| CCCCCCCCCCCC(=O)N[C@@H](CCC(=O)NCCOCCOCC(=O)NCCCC[C@H](NC(=O)CNC(=O)CNC(=O)[C@H](CCC(=O)O)NC(=O)[C@@H](NC(=O)[C@H](CC(C)C)NC(=O)[C@](C)(Cc1ccc(O)cc1)NC(=O)[C@@H](CCC(=O)O)NC(=O)[C@@H](NC(=O)[C@H](Cc1ccccc1)NC(=O)[C@H](CCC(=O)O)NC(=O)C(C)(C)NC(=O)[C@H](CCC(N)=O)NC(=O)[C@H](C)NC(=O)[C@H](CCCCNC(=O)COCCOCCNC(=O)CC[C@H](NC(=O)CCCCCCCCCCC)C(=O)O)NC(=O)[C@H](CCCN)NC(=O)[C@H](CC(=O)O)NC(=O)[C@H](CC(C)C)NC(=O)[C@](C)(CC(C)C)NC(=O)[C@@H](NC(=O)[C@H](CO)NC(=O)[C@H](Cc1ccncc1)NC(=O)[C@H](CC(=O)O)NC(=O)[C@H](CO)NC(=O)[C@@H](NC(=O)[C@](C)(Cc1ccccc1F)NC(=O)[C@@H](NC(=O)CNC(=O)[C@H](CCC(=O)O)NC(=O)C(C)(C)NC(=O)[C@@H](N)Cc1ccc(O)cc1)[C@@H](C)O)[C@@H](C)O)[C@@H](C)CC)[C@@H](C)CC)[C@@H](C)CC)C(=O)N[C@@H](CO)C(=O)N[C@@H](CO)C(=O)NCC(=O)N[C@@H](C)C(=O)N1CCC[C@H]1C(=O)N1CCC[C@H]1C(=O)N1CCC[C@H]1C(=O)N[C@@H](CO)C(N)=O)C(=O)O [Example 14] | 0.769 nM | 0.286 nM | 9.19 nM | – | 89.5 ± 1.02% | 95 ± 2.32% | > 9950 nM | > 9950 nM | – | – | – | – | – | – |
| CCCCCCCCCCCCCCCC(=O)N[C@@H](CCC(=O)NCCOCCOCC(=O)NCCOCCOCC(=O)NCCCC[C@H](NC(=O)[C@H](CCCN)NC(=O)[C@H](CC(=O)O)NC(=O)[C@H](CC(C)C)NC(=O)[C@](C)(CC(C)C)NC(=O)[C@@H](NC(=O)[C@H](CO)NC(=O)[C@H](Cc1ccncc1)NC(=O)[C@H](CC(=O)O)NC(=O)[C@H](CO)NC(=O)[C@@H](NC(=O)[C@](C)(Cc1ccccc1F)NC(=O)[C@@H](NC(=O)CNC(=O)[C@H](CCC(=O)O)NC(=O)C(C)(C)NC(=O)[C@@H](N)Cc1ccc(O)cc1)[C@@H](C)O)[C@@H](C)O)[C@@H](C)CC)C(=O)N[C@@H](C)C(=O)N[C@@H](CCC(N)=O)C(=O)NC(C)(C)C(=O)N[C@@H](CCCCNC(=O)COCCOCCNC(=O)COCCOCCNC(=O)CC[C@H](NC(=O)CCCCCCCCCCCCCCC)C(=O)O)C(=O)N[C@@H](Cc1ccccc1)C(=O)N[C@H](C(=O)N[C@H](CCC(=O)O)C(=O)N[C@@](C)(Cc1ccc(O)cc1)C(=O)N[C@@H](CC(C)C)C(=O)N[C@H](C(=O)N[C@@H](CCC(=O)O)C(=O)NCC(=O)NCC(=O)N1CCC[C@H]1C(=O)N[C@@H](CO)C(=O)N[C@@H](CO)C(=O)NCC(=O)N[C@@H](C)C(=O)N1CCC[C@H]1C(=O)N1CCC[C@H]1C(=O)N1CCC[C@H]1C(=O)N[C@@H](CO)C(N)=O)[C@@H](C)CC)[C@@H](C)CC)C(=O)O [Example 21] | 0.302 nM | 0.246 nM | 0.806 nM | – | – | – | > 9950 nM | > 9950 nM | – | – | – | – | – | – |
| CCCCCCCCCCCCCCCC(=O)N[C@@H](CCC(=O)NCCOCCOCC(=O)NCCOCCOCC(=O)NCCCC[C@H](NC(=O)[C@H](CCCN)NC(=O)[C@H](CC(=O)O)NC(=O)[C@H](CC(C)C)NC(=O)[C@](C)(CC(C)C)NC(=O)[C@@H](NC(=O)[C@H](CO)NC(=O)[C@H](Cc1ccncc1)NC(=O)[C@H](CC(=O)O)NC(=O)[C@H](CO)NC(=O)[C@@H](NC(=O)[C@](C)(Cc1ccccc1F)NC(=O)[C@@H](NC(=O)CNC(=O)[C@H](CCC(=O)O)NC(=O)C(C)(C)NC(=O)[C@@H](N)Cc1ccc(O)cc1)[C@@H](C)O)[C@@H](C)O)[C@@H](C)CC)C(=O)N[C@@H](C)C(=O)N[C@@H](CCC(N)=O)C(=O)NC(C)(C)C(=O)N[C@@H](CCC(=O)O)C(=O)N[C@@H](Cc1ccccc1)C(=O)N[C@H](C(=O)N[C@@H](CCCCNC(=O)COCCOCCNC(=O)COCCOCCNC(=O)CC[C@H](NC(=O)CCCCCCCCCCCCCCC)C(=O)O)C(=O)N[C@@](C)(Cc1ccc(O)cc1)C(=O)N[C@@H](CC(C)C)C(=O)N[C@H](C(=O)N[C@@H](CCC(=O)O)C(=O)NCC(=O)NCC(=O)N1CCC[C@H]1C(=O)N[C@@H](CO)C(=O)N[C@@H](CO)C(=O)NCC(=O)N[C@@H](C)C(=O)N1CCC[C@H]1C(=O)N1CCC[C@H]1C(=O)N1CCC[C@H]1C(=O)N[C@@H](CO)C(N)=O)[C@@H](C)CC)[C@@H](C)CC)C(=O)O [Example 22] | – | – | – | – | – | – | – | – | 93.4 ± 0.775% | 0.533 nM | 0.301 nM | > 9950 nM | > 9950 nM | 1.5 nM |
